Positions of bridges follow the written chain, without caps; N, C: chain ends. Non-standard residues stand in square brackets, D forms with d. Residues, ends and D or L forms follow the SMILES beside them. *: point of attachment. Ileψ(thiazoline)Cys = CC[C@H](C)[C@H](N)C1=N[C@H](C(=O)*)CS1; dOrn = NCCC[C@@H](N)C(=O)O

In this test the test system is Culture A80509. In words: resistance of culture A80509 to antibiotics, sensitivity discs on agar.

Consider `CO[C@H]1/C=C/O[C@@]2(C)Oc3c(C)c(O)c4c(O)c(c(/C=N/N5CCN(C)CC5)c(O)c4c3C2=O)NC(=O)/C(C)=C\C=C\[C@H](C)[C@H](O)[C@@H](C)[C@@H](O)[C@@H](C)[C@H](OC(C)=O)[C@@H]1C` [rifampin], for which, under “disc 5 μg”, the “resistance/sensitivity of culture A80509” value is reported as “sensitive”. With `CC(=O)OCC1=C(C(=O)O)N2C(=O)[C@@H](NC(=O)Cc3cccs3)[C@H]2SC1` [cephalothin], where the note is “disc 30 μg”, the “resistance/sensitivity of culture A80509” value is on record as “resistant”. On the same count and under the same terms, to `CN[C@H](CC(C)C)C(=O)N[C@H]1C(=O)N[C@@H](CC(N)=O)C(=O)N[C@H]2C(=O)N[C@H]3C(=O)N[C@H](C(=O)N[C@H](C(=O)O)c4cc(O)cc(O)c4-c4cc3ccc4O)[C@H](O)c3ccc(c(Cl)c3)Oc3cc2cc(c3O[C@@H]2O[C@H](CO)[C@@H](O)[C@H](O)[C@H]2O[C@H]2C[C@](C)(N)[C@H](O)[C@H](C)O2)Oc2ccc(cc2Cl)[C@H]1O` [vancomycin] belongs “sensitive”; to `CN(C)C1C(=O)C(C(N)=O)=C(O)C2(O)C(=O)C3=C(O)c4c(O)cccc4C(C)(O)C3CC12` (stereo not drawn) [tetracycline], “sensitive”. On to gentamicin, for which, for the setting “disc 10 μg”, the “resistance/sensitivity of culture A80509” value was “sensitive”. The same measure, in the same setting: the same measure for `NC[C@H]1O[C@H](O[C@H]2[C@H](O)[C@@H](O[C@H]3O[C@H](CO)[C@@H](O)[C@H](N)[C@H]3O)[C@H](N)C[C@@H]2N)[C@H](N)C[C@@H]1O` [tobramycin]: “sensitive”. Consider `CCC[C@@H]1C[C@@H](C(=O)N[C@@H]([C@H]2O[C@H](SC)[C@H](O)[C@@H](O)[C@H]2O)[C@@H](C)O)N(C)C1` [lincomycin], for which the “resistance/sensitivity of culture A80509” value (disc 2 μg) was “resistant”. As for `CC1(C)S[C@@H]2[C@H](NC(=O)Cc3ccccc3)C(=O)N2[C@H]1C(=O)O` [penicillin G], the “resistance/sensitivity of culture A80509” value (disc 10 units) is given as “resistant”. Turning to neomycin, for the setting “disc 30 μg”, the “resistance/sensitivity of culture A80509” value is given as “sensitive”.

With `CC[C@H](C)[C@H](N)C1=N[C@H](C(=O)N[C@@H](CC(C)C)C(=O)N[C@H](CCC(=O)O)C(=O)N[C@H](C(=O)N[C@H]2CCCCNC(=O)[C@H](CC(N)=O)NC(=O)[C@@H](CC(=O)O)NC(=O)[C@H](Cc3cnc[nH]3)NC(=O)[C@@H](Cc3ccccc3)NC(=O)[C@H]([C@@H](C)CC)NC(=O)[C@@H](CCCN)NC2=O)[C@@H](C)CC)CS1` [bacitracin] ({Ileψ(thiazoline)Cys}-L[dE]IK[dOrn]I[dF]H[dD]N; lactam 4-C), the “resistance/sensitivity of culture A80509” value (disc 10 units) is “sensitive”. As to `CO[C@H]1C[C@H](O[C@H]2[C@H](C)[C@@H](O[C@@H]3O[C@H](C)C[C@H](N(C)C)[C@H]3O)[C@@H](C)C[C@@]3(CO3)C(=O)[C@H](C)[C@@H](O)[C@@H](C)[C@@H](C)OC(=O)[C@@H]2C)O[C@@H](C)[C@@H]1O` [oleandomycin], the “resistance/sensitivity of culture A80509” value (disc 15 μg) is “resistant”. With `[H]/N=C(/N)N[C@H]1[C@H](O)[C@@H](O)[C@H](O[C@@H]2O[C@@H](C)[C@](O)(C=O)[C@H]2O[C@@H]2O[C@@H](CO)[C@H](O)[C@@H](O)[C@@H]2NC)[C@@H](N/C(N)=N\[H])[C@@H]1O` [streptomycin], the “resistance/sensitivity of culture A80509” value (disc 10 μg) was “sensitive”.

Source of the values: US4885170A, “Antibiotic A80509” (Eli Lilly and Company, priority 1988, dated 1989).
